Test results published in patent US11207277B2, “Methods of treating diseases associated with high-fat diet and vitamin a deficiency using retinoic acid receptor agonists” (Cornell University, priority 2013, dated 2021).
“Also recorded” adds a separate entry of the source.

Experiments:
RARβ2 [1] = test: Semi-quantitative PCR of pancreatic tissue, HF-fed mice; assay type: in vivo; conditions: HF diet mice + AC261066 vs HF-vehicle
Excerpt: (§1) WT male C57/BL6 male mice were maintained on either a standard laboratory chow-fed diet (CFD) with 13% kcal fat, (diet #5053, Lab Diet, Inc, St. Louis, Mo.) or a high fat, western style diet (HFD) with 60% kcals from fat, (diet #58126, Lab Diet, Inc., St. Louis, Mo.) for 4 months. One month after the start of the high fat diet treatment, the high fat diet group was further split into 2 groups for 3 months: i) high fat diet and the drinking water containing 1% DMSO; ii) high fat diet and the drinking water containing 1.5 mg/100 ml AC261066, a specific RARβ agonist. Then mice were sacrificed by cervical dislocation. Blood and various tissue samples were harvested.
(§2) Total RNA was extracted from mouse tissues using TRIzol reagent (Life technologies) and (1 μg) was used to synthesize cDNA. cDNA synthesis was performed at 42° C. for 1 h in a final volume of 20 μl using qScript (Quanta, MD). Semi-quantitative PCR were performed Taq DNA polymerase (Invitrogen, CA). Three step PCR was run as follows: 94° C. for 30 s, 58-64° C. for 45 s for primer annealing and 72° C. for 1 min for primer extension. The number of cycles for each primer pair for amplification in the linear range was determined experimentally. PCR products were resolved on 2% agarose gels and visualized by staining with ehtidium bromide. Primers for gene expression used were as follows: […]

4-hydroxynonenal (4-HNE) [2] = test: 4-HNE staining of pancreas sections, HF-fed mice; assay type: in vivo; conditions: HF diet mice, AC261066 1.5 mg/100 ml drinking water 3 months; vs HF-vehicle
Procedure: AC261066 was dissolved in dimethyl sulfoxide (DMSO) at the concentration of 1.5 mg/ml, and diluted in the drinking water for mice to the final concentration of 1.5 mg/100 ml.
as §1
(§3) Paraffin-embedded sections (from two to four mice per group) were deparaffinized and rehydrated, and antigen retrieval was performed using an antigen unmasking solution (Vector Laboratories, H-3300). After quenching endogenous peroxidase with 3% H2O2, the tissue sections were blocked with the blocking reagent (from the M.O.M. kit from Vector Laboratories). Then, tissue sections were incubated with a 4-HNE antibody (1:400; mouse monoclonal antibody: Abcam, ab48506) overnight at 4° C. […]

c-peptide = test: c-peptide/glucagon immunofluorescence of pancreatic islets, HF-fed mice; assay type: in vivo
Procedure: Immunofluorescence assays on cells and tissue sections were performed as previously described (29). Briefly, differentiated samples were fixed using 4% (w/v) paraformaldehyde and membrane permeabilization (for cells only) was done with 0.3% (w/v) Triton-X 100 (Sigma). Unspecific sites were blocked using 2% BSA for 30 min prior to incubation with rabbit polyclonal anti-PDX1 (Millipore, 06-1379, 1:1000), rabbit anti-C-Peptide (Cell Signaling, 4593, 1:500, Danvers, Mass.) and mouse monoclonal anti-Glucagon (Abcam, ab10988, 1:200) primary antibodies. Phalloidin-TRITC (Millipore, FAK100, 1:1000, Billerica, Mass.) was used to stain the actin stress fiber network (F-actin). Nuclei were stained using DAPI contained in Vectashield® mounting medium for fluorescence (Vector labs, Burlingame, Calif.). Quantitation of C-peptide positive stained cells and islet surface area was performed using MS-Elements Advanced Research software (Nikon).
WT male C57/BL6 male mice were maintained on either a standard laboratory chow-fed diet (CFD) with 13% kcal fat, (diet #5053, Lab Diet, Inc, St. Louis, Mo.) or a high fat, western style diet (HFD) with 60% kcals from fat, (diet #58126, Lab Diet, Inc., St. Louis, Mo.) for 4 months. […]

RARβ2 [3] = test: Semi-quantitative PCR of pancreatic tissue, LRAT -/- vitamin A deficient mice; assay type: in vivo; conditions: AC261066 for 8 weeks
Procedure: FIG. 10. Gene expression of RARβ2 in pancreatic tissue from LRAT −/− vitamin A sufficient mice (VAS, normal control diet), LRAT −/− vitamin A deficient (VAD) mice, and LRAT −/− vitamin A deficient (VAD) mice treated with AC261066 for 8 weeks.
as §2

[4] = test system: retinyl palmitate and retinol; test: HPLC analysis of liver retinoids; assay type: in vivo, mice
Excerpt: as §1
The frozen liver tissue samples (˜100 mg) were homogenized in 500 μl cold phosphate-buffered saline (PBS). In addition, 100 μl serum was diluted in cold PBS to total volume of 500 μl. Retinyl acetate was added to each sample before the retinoid extraction for the calculation of extraction efficiency. The retinoids were extracted into 350 μl of organic solution (acetonitrile/butanol, 50:50, v/v) in the dark. The high performance liquid chromatography (HPLC) was performed using a Waters Millennium system (Waters). Each sample (100 μl of the 350 μl) was loaded onto an analytical 5-μm reverse phase C18 column (Vydac, Hesperia, Calif.) and eluted at a flow rate of 1.5 ml/min. Two mobile phase gradient systems were used. Retinoids were identified by HPLC based on two criteria: an exact match of the retention times of unknown peaks with those of authentic retinoid standards and identical UV light spectra (220-400 nm) of unknowns against spectra from authentic retinoid standards during HPLC by the use of a photodiode array detector. The amounts of retinoids were calculated from the areas under the peaks detected at the wave-length of 325 nm. The levels of retinol and retinyl esters were normalized to the tissue weight.

[5] = test system: hepatocyte lipid accumulation; test: Hematoxylin and eosin staining of liver sections (hepatic steatosis); assay type: in vivo; conditions: HF diet mice 4 months + AC261066 or CD1530; vs HF-vehicle
Excerpt: as §1
At sacrifice, fresh mouse liver samples were fixed in 4% formaldehyde solution for 24 hr and embedded in paraffin blocks. Liver paraffin sections were cut 5 microns thick and mounted on glass slides and stained with hematoxylin and eosin (H and E) using standard protocols.

4-hydroxynonenal (4-HNE) [6] = test: 4-HNE staining of kidney sections; assay type: in vivo, mice; conditions: HF diet + AC261066 vs HF diet group
Excerpt: as §1
as §3, with “antibody;” for “antibody:”, “C. The sections were then incubated with secondary antibodies (1:200, anti-mouse IgG from the M.O.M kit). As a negative control, sections were stained without incubation with primary antibodies.” for “C.”

all-trans retinol = test: HPLC analysis of serum retinol; assay type: in vivo; conditions: CF, HF and HF+AC261066 fed mice
Excerpt: as §1
The frozen liver tissue samples (˜100 mg) were homogenized in 500 μl cold phosphate-buffered saline (PBS). In addition, 100 μl serum was diluted in cold PBS to total volume of 500 μl. Retinyl acetate was added to each sample before the retinoid extraction for the calculation of extraction efficiency. The retinoids were extracted into 350 μl of organic solution (acetonitrile/butanol, 50:50, v/v) in the dark. The high performance liquid chromatography (HPLC) was performed using a Waters Millennium system (Waters). […] The amounts of retinoids were calculated from the areas under the peaks detected at the wave-length of 325 nm. […]

[7] = HF diet mice + AC261066 or CD1530 vs controls

Compound: CCCCOCCOc1nc(-c2ccc(C(=O)O)c(F)c2)sc1C [AC261066]
- RARβ (RARβ2) mRNA levels in pancreas (RARβ2 [1]): increased the RAR 32 mRNA levels; also recorded: increased compared to HF-vehicle treated mice
- 4-HNE staining intensity (oxidative stress) in pancreatic islets (4-hydroxynonenal (4-HNE) [2]): reduces oxidative stress in the pancreatic islets; also recorded: markedly lower 4-HNE staining intensity levels
- c-peptide level in pancreatic islets (c-peptide; HF diet + AC261066 vs HF diet mice): slightly reduces expression of c-peptide; also recorded: slightly decreased c-peptide level
- c-peptide staining in pancreatic islets (c-peptide; HF+AC261066 fed mice vs control diet controls): marked increase in c-peptide staining
- RARβ2 mRNA levels in pancreas (RARβ2 [3]): increased the RARβ2 mRNA levels
- higher levels of retinyl palmitate in the livers compared to HF-vehicle treated mice ([4]; HF diet mice + AC261066): 55%
- liver retinol compared to controls [4, 7]: significantly lowered
- liver retinyl palmitate compared to controls [4, 7]: significantly lowered
- vitamin A deficiency in liver caused by high fat diet ([4]; HFD+AC261066): partially reversed
- hepatocyte lipid infiltration / hepatic steatosis (H and E) [5]: diminished hepatic steatosis; also recorded: prevent hepatic steatosis; also recorded: marked decreased hepatocyte lipid infiltration
- 4-HNE levels (oxidative stress) in kidneys (4-hydroxynonenal (4-HNE) [6]): reduces oxidative stress (ROS); also recorded: lower 4-HNE levels than those from the high fat diet group
- serum levels of all-trans retinol (all-trans retinol): not different
